Test results as given in US20120230918A1, “NON-INVASIVE IN VIVO OPTICAL IMAGING METHOD” (Hoffmann-La-Roche Inc., priority 2009, published 2012).
Blank lines part the entries; values can stand above or below the molecule they belong to.

Tests used:
[1] = in vivo; settings: female, BALB/c nude, mouse, eye region (fluorescence signal), iv, 20 μg/200 μl
Experimental: Female BALB/c nude mice received inhalation anaesthesia, were placed in the imaging chamber (FIG. 3) and injected i.v. with a dose of 20 μg/200 μl. The fluorescence signal intensity measurements in the eye was started 10 sec before i.v. injection of ICG and images were recorded every second with an acquisition time of 500 ms over a period of 8 minutes. ICG was excited with light at a wavelength range from 671 to 705 nm and the emission was detected at 820 nm.
Female BALB/c nude received inhalation anesthesia, were placed into the imaging chamber and injected i.v. with ICG (20 μg/200 μl). The fluorescence signal intensity was measured starting 10 sec before injection of ICG. Images in the region of interest were recorded every second with an acquisition time of 500 ms over a period of 8 min. ICG was excited with light at a wavelength range from 671 to 705 nm and the emission was detected at 820 nm. The fluorescence intensity from these regions were then calculated and plotted as a function of time.
Female BALB/c nude mice received inhalation anesthesia, were placed in the imaging chamber (FIG. 3) and injected i.v. with a dose of 20 μg/200 μl.

[2] = injected i.v. into mice; cited from earlier work
[3] = in vivo; settings: BALB/c nude, mouse, eye (fluorescence signal intensity in the eye region), iv, 20 μg/200 μl
Experimental: (§1) We first evaluated the technical feasibility of this new approach by using indocyanine green (ICG) a fluorescent dye. […] Female BALB/c nude mice received inhalation anaesthesia, were placed in the imaging chamber (FIG. 3) and injected i.v. with a dose of 20 μg/200 μl. The fluorescence signal intensity measurements in the eye was started 10 sec before i.v. injection of ICG and images were recorded every second with an acquisition time of 500 ms over a period of 8 minutes. ICG was excited with light at a wavelength range from 671 to 705 nm and the emission was detected at 820 nm. […] In a second experiment, a BALB/c nude mouse with a s.c. growing tumor (Calu3) was injected with ICG i.v. and signal intensity in eye, liver, kidney, brain and the tumor region was monitored.
(§2) The fluorescence signal intensity in Calu3 xenograft was measured as described before. ROI were identified for the eye, liver, kidney, brain and s.c. growing tumor using the anatomical pictures of the subjects. The fluorescence intensity from these regions were then calculated and plotted as a function of time.
(§3) In a second experiment, a BALB/c nude mouse with a s.c. growing tumor (Calu3) was injected with ICG i.v. and signal intensity in eye, liver, kidney, brain and the tumor region was monitored.

[4] = Fluorescence signal intensity of ICG in eye, liver, kidney, brain and tumor region of a mouse with s.c. Calu3 tumor; settings: second experiment, ICG i.v., BALB/c nude mouse with s.c. Calu3 tumor
Experimental: as §1, §2, §3

[5] = after i.v. injection; cited from earlier work
[6] = tested on: BMP-2 induced upregulation of Hepcidin mRNA in HepG2 cells; test: Block of BMP-2 induced upregulation of Hepcidin mRNA in HepG2 cells; format: cell-based; settings: in vitro

Tmax [1]: 2 min
half-life [1]: 6.6 min
Tmax [3]: 1.2 min
half-life [3]: 5.4 min
accumulation in the liver, time of reaching a plateau [4]: 3.8 min
Molecule: CC1(C)C(/C=C/C=C/C=C/C=C2\N(CCCCS(=O)(=O)O)c3ccc4ccccc4c3C2(C)C)=[N+](CCCCS(=O)(=O)[O-])c2ccc3ccccc3c21 [ICG, Indocyanine green]
organ of accumulation [2]: accumulates in the liver
time in which cleared from the circulation [2]: 2 to 4 min

Molecule: NCCC(O)(P(=O)(O)O)P(=O)(O)O [Pamidronate]
serum half life [5]: 20 to 30 min

B1: non-labeled Hemojuvelin: non-labeled Hemojuvelin (protein, UniProt Q6ZVN8 36-400, looked up)
Hemojuvelin: QCKILRCNAEYVSSTLSLRGGGSSGALRGGGGGGRGGGVGSGGLCRALRSYALCTRRTARTCRGDLAFHSAVHGIEDLMIQHNCSRQGPTAPPPPRGPALPGAGSGLPAPDPCDYEGRFSRLHGRPPGFLHCASFGDPHVRSFHHHFHTCRVQGAWPLLDNDFLFVQATSSPMALGANATATRKLTIIFKNMQECIDQKVYQAEVDNLPVAFEDGSINGGDRPGGSSLSIQTANPGNHVEIQAAYIGTTIIIRQTAGQLSFSIKVAEDVAMAFSAEQDLQLCVGGCPPSQRLSRSERNRRGAITIDTARRLCKEGLPVEDAYFHSCVFDVLISGDPNFTVAAQAALEDARAFLPDLEKLHLFPSD
ability to block BMP-2 induced upregulation of Hepcidin mRNA, non-labeled versus Cy5-labeled [6]: did not differ

B2: Cy5-labeled Hemojuvelin: Hemojuvelin labeled with Cy5 (conjugate, UniProt Q6ZVN8 36-400, looked up)
Hemojuvelin: QCKILRCNAEYVSSTLSLRGGGSSGALRGGGGGGRGGGVGSGGLCRALRSYALCTRRTARTCRGDLAFHSAVHGIEDLMIQHNCSRQGPTAPPPPRGPALPGAGSGLPAPDPCDYEGRFSRLHGRPPGFLHCASFGDPHVRSFHHHFHTCRVQGAWPLLDNDFLFVQATSSPMALGANATATRKLTIIFKNMQECIDQKVYQAEVDNLPVAFEDGSINGGDRPGGSSLSIQTANPGNHVEIQAAYIGTTIIIRQTAGQLSFSIKVAEDVAMAFSAEQDLQLCVGGCPPSQRLSRSERNRRGAITIDTARRLCKEGLPVEDAYFHSCVFDVLISGDPNFTVAAQAALEDARAFLPDLEKLHLFPSD
modifications: Cy5 label
ability to block BMP-2 induced upregulation of Hepcidin mRNA, non-labeled versus Cy5-labeled [6]: did not differ
